pIC50: −log10 of the molar value. Converted amounts (≈) assume the structure as drawn. Numbered stars: 1 amine (or outer) side, 2 acyl side, 3 side chain; on linkers, the order of the positions; unused ones are H or OH. Square brackets hold non-standard residues; d marks the D form. Peptide text beside a SMILES is read from it. * marks the point of attachment. Ava(2S,3R-(OH)2,4S-OMe) = CO[C@@H](CN[*:1])[C@H](O)[C@H](O)C(=O)[*:2]; dHis(βS-OH,π-Me) = Cn1cncc1[C@@H](O)[C@@H](N)C(=O)O; Butanoyl(2R-OH,3S-OH) = C[C@H](O)[C@@H](O)C(=O)*; Val(3-OH) = CC(C)(O)[C@H](N)C(=O)O; NMeF = CN[C@@H](Cc1ccccc1)C(=O)O
Assays:
Escherichia coli [1] = assay: Antimicrobial activity against Escherichia coli assessed as microbial growth inhibition; type: functional
Klebsiella pneumoniae [2] = assay: Antimicrobial activity against Klebsiella pneumoniae assessed as microbial growth inhibition; type: functional
Pseudomonas aeruginosa [3] = assay: Antimicrobial activity against Pseudomonas aeruginosa assessed as microbial growth inhibition; type: functional
Escherichia coli [4] = assay: Antibacterial activity against Escherichia coli infected in mouse model assessed as mouse survival at 20 mg/kg iv; type: functional
[5] = Lipophilicity, log D of the compound at pH 7.4; type: physicochemical; settings: buffer
[6] = Aqueous solubility of compound in PBS at pH 7.4; type: physicochemical
[7] = Permeability of compound in human Caco-2 cells; type: ADME, cell-based; settings: read-out: permeability
HepG2 = assay: Cytotoxicity against human HepG2 cells assessed as inhibition of cell growth at 30 uM incubated for 40 hrs by celltiterglo assay; type: functional
[8] = target: Voltage-gated inwardly rectifying potassium channel KCNH2 (Homo sapiens, UniProt Q12809); assay: Inhibition of hERG; type: toxicity
Sequence of Voltage-gated inwardly rectifying potassium channel KCNH2 (Q12809 whole entry): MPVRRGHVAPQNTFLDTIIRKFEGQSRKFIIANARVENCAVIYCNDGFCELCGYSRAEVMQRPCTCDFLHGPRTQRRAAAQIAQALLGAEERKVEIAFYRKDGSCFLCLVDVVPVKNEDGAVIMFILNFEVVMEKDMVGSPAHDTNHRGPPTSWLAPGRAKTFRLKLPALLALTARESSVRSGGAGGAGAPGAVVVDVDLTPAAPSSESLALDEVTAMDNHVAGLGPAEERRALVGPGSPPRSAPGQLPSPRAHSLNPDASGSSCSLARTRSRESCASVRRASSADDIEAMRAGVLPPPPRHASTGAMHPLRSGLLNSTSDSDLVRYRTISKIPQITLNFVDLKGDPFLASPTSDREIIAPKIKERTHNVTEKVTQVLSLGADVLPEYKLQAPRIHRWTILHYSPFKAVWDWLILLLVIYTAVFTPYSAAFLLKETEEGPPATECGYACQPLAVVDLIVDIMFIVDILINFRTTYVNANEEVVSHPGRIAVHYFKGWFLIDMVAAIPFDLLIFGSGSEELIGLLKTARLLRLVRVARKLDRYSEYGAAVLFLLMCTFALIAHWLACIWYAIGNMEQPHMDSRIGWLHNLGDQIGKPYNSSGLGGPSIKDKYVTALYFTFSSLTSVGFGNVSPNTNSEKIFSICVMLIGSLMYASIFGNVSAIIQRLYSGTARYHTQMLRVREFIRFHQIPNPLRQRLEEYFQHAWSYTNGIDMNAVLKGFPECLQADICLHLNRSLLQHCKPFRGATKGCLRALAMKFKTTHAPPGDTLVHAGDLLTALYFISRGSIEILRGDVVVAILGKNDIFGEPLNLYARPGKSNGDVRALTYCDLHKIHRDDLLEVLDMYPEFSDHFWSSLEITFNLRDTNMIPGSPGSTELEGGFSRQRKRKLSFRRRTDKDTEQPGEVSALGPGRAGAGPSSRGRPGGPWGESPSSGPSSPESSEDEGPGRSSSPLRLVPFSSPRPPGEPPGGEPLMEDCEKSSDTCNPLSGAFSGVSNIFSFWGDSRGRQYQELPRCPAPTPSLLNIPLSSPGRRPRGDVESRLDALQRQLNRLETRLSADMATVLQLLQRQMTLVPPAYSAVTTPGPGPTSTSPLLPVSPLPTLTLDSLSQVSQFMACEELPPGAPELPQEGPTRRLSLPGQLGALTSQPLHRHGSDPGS

[9] = target: T1, A-type voltage-gated potassium channel KCND3 (Homo sapiens, UniProt Q9UK17); assay: Inhibition of Kv4.3 (unknown origin)
T1 sequence (Q9UK17 whole entry): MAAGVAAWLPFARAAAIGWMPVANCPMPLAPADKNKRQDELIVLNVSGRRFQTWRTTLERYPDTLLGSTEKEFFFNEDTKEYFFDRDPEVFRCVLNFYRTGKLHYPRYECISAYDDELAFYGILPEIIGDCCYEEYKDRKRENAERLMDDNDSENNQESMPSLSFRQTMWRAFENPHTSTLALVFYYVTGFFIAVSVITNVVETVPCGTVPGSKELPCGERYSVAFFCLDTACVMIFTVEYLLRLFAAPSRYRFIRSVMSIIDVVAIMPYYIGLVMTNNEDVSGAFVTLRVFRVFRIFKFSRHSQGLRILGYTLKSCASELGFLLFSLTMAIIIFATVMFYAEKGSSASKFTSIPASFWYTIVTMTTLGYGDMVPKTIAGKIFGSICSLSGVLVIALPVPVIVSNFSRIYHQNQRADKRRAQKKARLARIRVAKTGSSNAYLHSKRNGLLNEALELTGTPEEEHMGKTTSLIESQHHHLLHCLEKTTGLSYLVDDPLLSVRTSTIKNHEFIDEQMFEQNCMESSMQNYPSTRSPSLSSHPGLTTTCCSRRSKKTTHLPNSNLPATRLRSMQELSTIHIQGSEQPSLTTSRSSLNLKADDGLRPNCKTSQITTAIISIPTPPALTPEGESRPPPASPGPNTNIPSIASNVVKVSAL

[10] = target: Voltage-dependent T-type calcium channel subunit alpha-1G (Homo sapiens, UniProt O43497); assay: Inhibition of Cav3.1 (unknown origin)
[11] = target: Sodium channel protein type 2 subunit alpha (Homo sapiens, UniProt Q99250); assay: Inhibition of Nav1.2 (unknown origin)
Sequence of Sodium channel protein type 2 subunit alpha (Q99250 whole entry): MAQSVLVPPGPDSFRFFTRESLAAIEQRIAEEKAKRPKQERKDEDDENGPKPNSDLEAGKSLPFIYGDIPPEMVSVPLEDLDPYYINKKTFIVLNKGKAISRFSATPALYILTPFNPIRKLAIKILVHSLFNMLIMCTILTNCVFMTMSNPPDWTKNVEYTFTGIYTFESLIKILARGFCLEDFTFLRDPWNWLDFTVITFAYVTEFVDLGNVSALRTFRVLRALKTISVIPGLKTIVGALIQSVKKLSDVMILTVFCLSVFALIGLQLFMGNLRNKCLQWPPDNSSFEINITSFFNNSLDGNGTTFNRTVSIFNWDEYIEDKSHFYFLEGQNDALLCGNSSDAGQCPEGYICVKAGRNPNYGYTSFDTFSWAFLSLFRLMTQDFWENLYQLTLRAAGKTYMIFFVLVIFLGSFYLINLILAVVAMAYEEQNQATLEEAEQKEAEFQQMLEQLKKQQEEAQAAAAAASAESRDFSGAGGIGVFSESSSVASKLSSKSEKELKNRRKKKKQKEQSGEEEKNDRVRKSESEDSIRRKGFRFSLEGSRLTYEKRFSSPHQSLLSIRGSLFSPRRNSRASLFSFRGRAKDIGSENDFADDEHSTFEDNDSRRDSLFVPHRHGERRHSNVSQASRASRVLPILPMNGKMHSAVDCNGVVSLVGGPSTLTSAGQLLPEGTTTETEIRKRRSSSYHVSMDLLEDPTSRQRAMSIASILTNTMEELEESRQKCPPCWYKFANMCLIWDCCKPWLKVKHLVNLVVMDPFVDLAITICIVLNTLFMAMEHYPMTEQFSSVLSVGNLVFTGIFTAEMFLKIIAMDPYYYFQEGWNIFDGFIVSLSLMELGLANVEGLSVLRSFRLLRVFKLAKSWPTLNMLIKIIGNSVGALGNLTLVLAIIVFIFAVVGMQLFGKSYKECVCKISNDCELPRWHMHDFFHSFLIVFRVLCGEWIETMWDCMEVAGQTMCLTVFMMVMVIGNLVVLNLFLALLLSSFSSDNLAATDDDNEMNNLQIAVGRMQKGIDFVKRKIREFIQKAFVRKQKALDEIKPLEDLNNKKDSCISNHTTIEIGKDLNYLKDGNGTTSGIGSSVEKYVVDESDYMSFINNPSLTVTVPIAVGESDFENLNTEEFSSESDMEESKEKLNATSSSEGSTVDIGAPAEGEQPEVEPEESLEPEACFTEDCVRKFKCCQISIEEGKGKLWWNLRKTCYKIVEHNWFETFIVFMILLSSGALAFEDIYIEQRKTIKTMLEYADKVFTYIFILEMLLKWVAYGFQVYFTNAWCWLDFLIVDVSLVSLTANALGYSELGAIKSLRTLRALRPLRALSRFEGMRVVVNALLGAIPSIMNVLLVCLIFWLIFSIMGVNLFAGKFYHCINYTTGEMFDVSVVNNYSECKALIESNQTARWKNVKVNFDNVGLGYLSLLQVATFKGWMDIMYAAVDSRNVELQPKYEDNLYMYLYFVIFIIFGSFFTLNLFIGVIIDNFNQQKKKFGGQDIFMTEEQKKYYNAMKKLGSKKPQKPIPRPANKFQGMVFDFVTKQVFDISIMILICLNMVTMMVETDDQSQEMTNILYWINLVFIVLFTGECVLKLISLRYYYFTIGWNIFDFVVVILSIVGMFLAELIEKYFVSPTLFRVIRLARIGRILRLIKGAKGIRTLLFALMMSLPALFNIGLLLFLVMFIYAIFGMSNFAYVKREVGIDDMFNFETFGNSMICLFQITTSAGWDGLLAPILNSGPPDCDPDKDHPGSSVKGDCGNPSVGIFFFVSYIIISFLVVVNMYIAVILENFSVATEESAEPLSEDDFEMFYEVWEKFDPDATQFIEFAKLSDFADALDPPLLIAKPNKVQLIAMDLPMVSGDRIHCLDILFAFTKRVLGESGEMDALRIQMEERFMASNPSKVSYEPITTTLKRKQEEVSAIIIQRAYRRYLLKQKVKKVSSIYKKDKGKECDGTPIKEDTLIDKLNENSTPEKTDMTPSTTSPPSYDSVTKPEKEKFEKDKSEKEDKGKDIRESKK

[12] = target: Sodium channel protein type 5 subunit alpha (Homo sapiens, UniProt Q14524); assay: Inhibition of Nav1.5 (unknown origin)
Sequence of Sodium channel protein type 5 subunit alpha (Q14524 whole entry): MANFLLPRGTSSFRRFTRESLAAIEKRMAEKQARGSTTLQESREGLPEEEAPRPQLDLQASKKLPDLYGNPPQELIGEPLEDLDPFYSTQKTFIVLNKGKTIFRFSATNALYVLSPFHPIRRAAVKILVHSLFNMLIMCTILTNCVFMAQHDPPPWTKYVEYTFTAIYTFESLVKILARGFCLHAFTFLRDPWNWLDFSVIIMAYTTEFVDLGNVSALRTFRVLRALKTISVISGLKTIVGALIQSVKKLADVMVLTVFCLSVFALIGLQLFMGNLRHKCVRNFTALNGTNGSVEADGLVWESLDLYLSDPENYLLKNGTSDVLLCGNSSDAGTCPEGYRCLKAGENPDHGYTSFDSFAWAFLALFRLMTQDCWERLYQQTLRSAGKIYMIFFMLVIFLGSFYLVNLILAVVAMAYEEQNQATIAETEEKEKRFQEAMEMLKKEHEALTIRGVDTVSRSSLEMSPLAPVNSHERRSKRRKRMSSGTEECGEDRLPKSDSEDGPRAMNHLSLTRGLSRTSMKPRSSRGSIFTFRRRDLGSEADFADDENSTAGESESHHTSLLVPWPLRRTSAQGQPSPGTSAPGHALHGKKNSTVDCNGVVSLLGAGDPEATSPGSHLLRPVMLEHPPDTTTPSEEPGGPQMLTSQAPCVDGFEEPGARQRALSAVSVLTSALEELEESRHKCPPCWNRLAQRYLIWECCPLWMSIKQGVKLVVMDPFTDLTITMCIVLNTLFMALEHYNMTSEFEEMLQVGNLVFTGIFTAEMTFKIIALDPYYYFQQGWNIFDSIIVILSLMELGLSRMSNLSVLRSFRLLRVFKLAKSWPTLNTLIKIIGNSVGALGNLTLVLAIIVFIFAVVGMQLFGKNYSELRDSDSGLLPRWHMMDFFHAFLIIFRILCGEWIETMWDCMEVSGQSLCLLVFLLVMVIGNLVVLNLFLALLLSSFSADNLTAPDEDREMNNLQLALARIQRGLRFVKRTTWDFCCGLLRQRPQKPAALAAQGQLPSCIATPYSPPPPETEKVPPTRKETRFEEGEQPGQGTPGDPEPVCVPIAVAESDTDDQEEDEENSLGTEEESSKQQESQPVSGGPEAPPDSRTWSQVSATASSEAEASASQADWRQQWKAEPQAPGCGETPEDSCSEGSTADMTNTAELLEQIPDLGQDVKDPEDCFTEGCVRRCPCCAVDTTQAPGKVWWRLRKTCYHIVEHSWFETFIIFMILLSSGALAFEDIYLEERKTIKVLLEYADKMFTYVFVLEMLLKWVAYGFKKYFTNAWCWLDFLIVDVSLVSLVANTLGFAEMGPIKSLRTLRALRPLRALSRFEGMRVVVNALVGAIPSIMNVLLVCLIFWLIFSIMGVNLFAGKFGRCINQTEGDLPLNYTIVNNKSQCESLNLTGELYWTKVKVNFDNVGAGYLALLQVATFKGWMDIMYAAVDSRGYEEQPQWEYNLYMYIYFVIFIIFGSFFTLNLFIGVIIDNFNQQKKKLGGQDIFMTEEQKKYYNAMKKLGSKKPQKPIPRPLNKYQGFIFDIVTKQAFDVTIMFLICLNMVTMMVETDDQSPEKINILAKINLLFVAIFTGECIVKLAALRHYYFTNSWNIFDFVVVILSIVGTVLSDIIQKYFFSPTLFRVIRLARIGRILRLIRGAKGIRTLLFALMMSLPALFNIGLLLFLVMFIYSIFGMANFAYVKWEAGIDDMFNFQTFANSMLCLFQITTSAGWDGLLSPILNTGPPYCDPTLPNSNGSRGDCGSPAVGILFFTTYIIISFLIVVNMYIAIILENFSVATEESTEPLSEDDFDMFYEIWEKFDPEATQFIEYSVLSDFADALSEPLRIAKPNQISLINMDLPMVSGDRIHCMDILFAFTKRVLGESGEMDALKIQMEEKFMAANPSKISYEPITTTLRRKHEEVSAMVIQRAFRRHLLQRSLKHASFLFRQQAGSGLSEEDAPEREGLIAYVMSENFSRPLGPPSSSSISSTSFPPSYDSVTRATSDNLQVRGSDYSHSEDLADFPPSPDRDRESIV

[13] = Metabolic stability in mouse kidney assessed as parent compound remaining measured after 4 hrs by UPLC-MS analysis; type: ADME, tissue-based; settings: read-out: Stability
[14] = Metabolic stability in mouse lung assessed as parent compound remaining measured after 4 hrs by UPLC-MS analysis; type: ADME, tissue-based; settings: mouse lung, read-out: Stability
[15] = Metabolic stability in mouse lung assessed as parent compound remaining measured after 1 hrs by UPLC-MS analysis; type: ADME, tissue-based; settings: mouse lung, read-out: Stability
[16] = Metabolic stability in mouse kidney assessed as parent compound remaining measured after 1 hrs by UPLC-MS analysis; type: ADME, tissue-based; settings: read-out: Stability
[17] = Metabolic stability in mouse lung assessed as M1 metabolite formation measured upto 4 hrs by UPLC-MS analysis; type: ADME, tissue-based
[18] = Metabolic stability in mouse kidney assessed as M1 metabolite formation measured upto 4 hrs by UPLC-MS analysis; type: ADME, tissue-based
[19] = Metabolic stability in mouse kidney assessed as M2 metabolite formation measured upto 4 hrs by UPLC-MS analysis; type: ADME, tissue-based
Escherichia coli [20] = assay: Antibacterial activity against Escherichia coli ATCC 35218 assessed as reduction in microbial growth incubated for 20 to 22 hrs by CLSI based analysis; type: functional; settings: time 20-22 hrs
Klebsiella pneumoniae [21] = assay: Antibacterial activity against Klebsiella pneumoniae ATCC 13883 assessed as reduction in microbial growth incubated for 20 to 22 hrs by CLSI based analysis; type: functional; settings: time 20-22 hrs
Acinetobacter baumannii [22] = assay: Antibacterial activity against Acinetobacter baumannii ATCC 19606 assessed as reduction in microbial growth incubated for 20 to 22 hrs by CLSI based analysis; type: functional; settings: time 20-22 hrs
Escherichia coli [23] = assay: Antibacterial activity against Escherichia coli ATCC 35218 infected in Swiss albino mouse model of Septicaemia infection assessed as log reduction in Septicaemia in blood at 20 mg/kg , iv preincubated for 4 hrs followed by bacterial infection and measured after 4 hrs post infection; type: functional; settings: time 8 hrs
Escherichia coli [24] = assay: Antibacterial activity against Escherichia coli D22 assessed as reduction in microbial growth incubated for 20 to 22 hrs by CLSI based analysis; type: functional; settings: time 20-22 hrs
Escherichia coli [25] = assay: Antibacterial activity against Escherichia coli D21 assessed as reduction in microbial growth incubated for 20 to 22 hrs by CLSI based analysis; type: functional; settings: time 20-22 hrs
Escherichia coli [26] = assay: Antibacterial activity against wild type Escherichia coli ATCC 35218 assessed as reduction in microbial growth incubated for 20 to 22 hrs by CLSI based analysis; type: functional; settings: time 20-22 hrs
Escherichia coli [27] = assay: Antibacterial activity against Escherichia coli ATCC 35218 harboring SbmA assessed as reduction in microbial growth incubated for 20 to 22 hrs by CLSI based analysis; type: functional; settings: time 20-22 hrs
Klebsiella pneumoniae [28] = assay: Antibacterial activity against wild type Klebsiella pneumoniae ATCC 13883 assessed as reduction in microbial growth incubated for 20 to 22 hrs by CLSI based analysis; type: functional; settings: time 20-22 hrs
Klebsiella pneumoniae [29] = assay: Antibacterial activity against Klebsiella pneumoniae ATCC 13883 harboring SbmA assessed as reduction in microbial growth incubated for 20 to 22 hrs by CLSI based analysis; type: functional; settings: time 20-22 hrs
Acinetobacter baumannii [30] = assay: Antibacterial activity against wild type Acinetobacter baumannii ATCC 19606 assessed as reduction in microbial growth incubated for 20 to 22 hrs by CLSI based analysis; type: functional; settings: time 20-22 hrs
Escherichia coli [31] = assay: Antibacterial activity against […] assessed as bacterial growth inhibition incubated for 20 to 22 hrs by CLSI based analysis; type: functional; settings: time 20-22 hrs
Escherichia coli [32] = assay: Antibacterial activity against multidrug-resistant Escherichia coli BAA2469 assessed as bacterial growth inhibition incubated for 20 to 22 hrs by CLSI based analysis; type: functional; settings: time 20-22 hrs
Escherichia coli [33] = assay: Antibacterial activity against multidrug-resistant Escherichia coli MG1655 assessed as bacterial growth inhibition incubated for 20 to 22 hrs by CLSI based analysis; type: functional; settings: time 20-22 hrs
Escherichia coli [34] = assay: Antibacterial activity against multidrug-resistant Escherichia coli MG1655 harboring tolC mutant assessed as bacterial growth inhibition incubated for 20 to 22 hrs by CLSI based analysis; type: functional; settings: time 20-22 hrs
Escherichia coli [35] = assay: Antibacterial activity against multidrug-resistant Escherichia coli UT189 assessed as bacterial growth inhibition incubated for 20 to 22 hrs by CLSI based analysis; type: functional; settings: time 20-22 hrs
Klebsiella pneumoniae [36] = assay: Antibacterial activity against […] assessed as bacterial growth inhibition incubated for 20 to 22 hrs by CLSI based analysis; type: functional; settings: time 20-22 hrs
Klebsiella pneumoniae [37] = assay: Antibacterial activity against multidrug-resistant Klebsiella pneumoniae G199 assessed as bacterial growth inhibition incubated for 20 to 22 hrs by CLSI based analysis; type: functional; settings: time 20-22 hrs
Klebsiella pneumoniae [38] = assay: Antibacterial activity against multidrug-resistant Klebsiella pneumoniae BAA2146 assessed as bacterial growth inhibition incubated for 20 to 22 hrs by CLSI based analysis; type: functional; settings: time 20-22 hrs
Klebsiella pneumoniae [39] = assay: Antibacterial activity against multidrug-resistant Klebsiella pneumoniae BAA2473 assessed as bacterial growth inhibition incubated for 20 to 22 hrs by CLSI based analysis; type: functional; settings: time 20-22 hrs
Klebsiella pneumoniae [40] = assay: Antibacterial activity against multidrug-resistant Klebsiella pneumoniae R1525 assessed as bacterial growth inhibition incubated for 20 to 22 hrs by CLSI based analysis; type: functional; settings: time 20-22 hrs
Pseudomonas aeruginosa [41] = assay: Antibacterial activity against multidrug-resistant Pseudomonas aeruginosa PAO1 assessed as bacterial growth inhibition incubated for 20 to 22 hrs by CLSI based analysis; type: functional; settings: time 20-22 hrs
Pseudomonas aeruginosa [42] = assay: Antibacterial activity against multidrug-resistant Pseudomonas aeruginosa PAO750 assessed as bacterial growth inhibition incubated for 20 to 22 hrs by CLSI based analysis; type: functional; settings: time 20-22 hrs
Enterobacter cloacae = assay: Antibacterial activity against multidrug-resistant Enterobacter cloacae BAA2341 assessed as bacterial growth inhibition incubated for 20 to 22 hrs by CLSI based analysis; type: functional; settings: time 20-22 hrs
Proteus mirabilis = assay: Antibacterial activity against multidrug-resistant Proteus mirabilis ATCC 7002 assessed as bacterial growth inhibition incubated for 20 to 22 hrs by CLSI based analysis; type: functional; settings: time 20-22 hrs
Citrobacter freundii = assay: Antibacterial activity against multidrug-resistant Citrobacter freundii ATCC 8090 assessed as bacterial growth inhibition incubated for 20 to 22 hrs by CLSI based analysis; type: functional; settings: time 20-22 hrs
Providencia stuartii = assay: Antibacterial activity against multidrug-resistant Providencia stuartii ATCC 49809 assessed as bacterial growth inhibition incubated for 20 to 22 hrs by CLSI based analysis; type: functional; settings: time 20-22 hrs
Acinetobacter baumannii [43] = assay: Antibacterial activity against multidrug-resistant Acinetobacter baumannii R835 assessed as bacterial growth inhibition incubated for 20 to 22 hrs by CLSI based analysis; type: functional; settings: time 20-22 hrs
Acinetobacter baumannii [44] = assay: Antibacterial activity against multidrug-resistant Acinetobacter baumannii R831 assessed as bacterial growth inhibition incubated for 20 to 22 hrs by CLSI based analysis; type: functional; settings: time 20-22 hrs

CO[C@@H](CNC(=O)[C@H](NC(=O)[C@H](O)[C@H](C)O)[C@H](O)c1cncn1C)[C@H](O)[C@H](O)C(=O)N(C)[C@@H](Cc1ccccc1)C(=O)NCC(=O)N[C@H](C(=O)N[C@@H](CO)C(=O)N[C@H](C(=O)N[C@@H](CC(C)C)C(=O)N[C@@H](CO)C(=O)O)C(C)(C)O)C(C)(C)O ({Butanoyl(2R-OH,3S-OH)}-[dHis(βS-OH,π-Me)][Ava(2S,3R-(OH)2,4S-OMe)][NMeF]G[Val(3-OH)]S[Val(3-OH)]LS-OH)
MIC (Escherichia coli [1]): 1 µg/mL (≈ 0.844 µM)
MIC (Klebsiella pneumoniae [2]): ≥ 64 µg/mL
MIC (Pseudomonas aeruginosa [3]): > 64 µg/mL
Activity (Escherichia coli [4]): <=60%
logD [5]: 0.68
solubility [6]: 2800 µg/mL (≈ 2360 µM)
Papp [7]: < 10 ×10⁻⁶ cm/s
inhibition at 30 µM (HepG2): 0%
pIC50 [8]: < 4.52
pIC50 [9]: < 4.52
pIC50 [10]: < 4.52
pIC50 [11]: < 4.52
pIC50 [12]: < 4.52
remaining at 4 h [13]: 6%
remaining at 4 h [14]: 1%
remaining at 1 h [15]: 7%
remaining at 1 h [16]: 41%
Drug metabolism [17]: Metabolite_Detected
Drug metabolism [18]: Metabolite_Detected
Drug metabolism [19]: Metabolite_Detected
MIC (Escherichia coli [20]): 4 µg/mL
MIC (Klebsiella pneumoniae [21]): 16 µg/mL
MIC (Acinetobacter baumannii [22]): > 32 µg/mL
Activity (Escherichia coli [23]): -3.3 log10CFU
MIC (Escherichia coli [24]): 0.25 µg/mL
MIC (Escherichia coli [25]): 4 µg/mL
MIC (Escherichia coli [26]): 4 µg/mL
MIC (Escherichia coli [27]): 4 µg/mL
MIC (Klebsiella pneumoniae [28]): 16 µg/mL
MIC (Klebsiella pneumoniae [29]): 16 µg/mL
MIC (Acinetobacter baumannii [30]): > 32 µg/mL

C[C@@H](O)[C@H]1C(=O)N2C(C(=O)O)=C(SCCNC=N)C[C@H]12 [IMIPENEM ANHYDROUS]
MIC (Escherichia coli [31]): 0.25 µg/mL (≈ 0.835 µM)
MIC (Escherichia coli [32]): > 2 µg/mL
MIC (Escherichia coli [33]): ≤ 0.015 µg/mL
MIC (Escherichia coli [34]): ≤ 0.015 µg/mL
MIC (Escherichia coli [35]): ≤ 0.25 µg/mL
MIC (Klebsiella pneumoniae [36]): 16 µg/mL (≈ 53.4 µM)
MIC (Klebsiella pneumoniae [37]): 16 µg/mL (≈ 53.4 µM)
MIC (Klebsiella pneumoniae [38]): > 16 µg/mL
MIC (Klebsiella pneumoniae [39]): 1 µg/mL (≈ 3.34 µM)
MIC (Klebsiella pneumoniae [40]): > 64 µg/mL
MIC (Pseudomonas aeruginosa [41]): 2 µg/mL (≈ 6.68 µM)
MIC (Pseudomonas aeruginosa [42]): 1 µg/mL (≈ 3.34 µM)
MIC (Enterobacter cloacae): > 64 µg/mL
MIC (Proteus mirabilis): 1 µg/mL (≈ 3.34 µM)
MIC (Citrobacter freundii): 1 µg/mL (≈ 3.34 µM)
MIC (Providencia stuartii): < 0.125 µg/mL
MIC (Acinetobacter baumannii [43]): > 1 µg/mL
MIC (Acinetobacter baumannii [44]): > 64 µg/mL

Reference: ChEMBL document CHEMBL5356971, “Optimization of the Antibacterial Spectrum and the Developability Profile of the Novel-Class Natural Product Corramycin” (J Med Chem, 2023)
